# Test results reported in PubChem BioAssay AID624491 (Broad Institute, 2012).
# Activity calls are given as the source filed them.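 The calls were made as follows: active = fitted curve crossing a set activation limit at or below the highest valid dose tested; inconclusive = flat fit at 30 to 70% activation, or poor fit; inactive = the rest, including signal decreases.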
# Tested on: D54 ERlucT glycosylation luciferase reporter, luminescence, 24 h
# Assay: blockers of NLG process in reporter cells – D54 ERlucT cells, luminescence, cherry-picks, dose response (AID 624491);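 also: signal gain reflects blocked N-linked glycosylation of a luciferase reporter; actives raise luciferase signal so AC26 marks activators of the reporter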
row,Compound,AC26
1,CCOc1ccc(OCC(=O)N(CCC2=CCCCC2)c2c(N)n(Cc3ccccc3)c(=O)[nH]c2=O)cc1,4380 nM
2,COc1ccccc1CCC(=O)Nc1ccc2c(c1)c(=O)n(C)n2-c1cccs1,124 nM
3,Cc1cc(C)nc(SC2CC(=O)N(c3ccc(C)c(C)c3)C2=O)n1 (configuration not stated),14300 nM
4,CN(C)S(=O)(=O)c1ccc(N2CCCC2)c(C(=O)Nc2nccs2)c1,549 nM
5,Cn1nc(-c2ccccc2)c(CSc2ccccc2Cl)c1Cl,6120 nM
6,CC(O)CN=c1cc(-c2ccccc2)oc2ccc(Cl)cc12 (configuration not stated),1150 nM
7,O=C(COc1ccc(C(=O)c2ccccc2)cc1)NCc1ccc(F)cc1,1870 nM
8,COc1ccc(CC(=O)NCc2ccc(-n3cccc3)cc2)cc1OC,825 nM
9,COc1ccc(NC(=O)C2(C)Cc3c(-c4cccc(C(N)=O)c4)ccnc3O2)cc1 (configuration not stated),2320 nM
10,CCc1ccc2nc3nc(C)cc(C)c3c(N)c2c1,2810 nM
11,Cc1cc(NC(=O)NC(=O)c2ccccc2NC(=O)CN)ccc1Oc1ncc(Br)cn1,11000 nM
12,O=C(Nc1cc(Cl)ccc1N1CCOCC1)c1ccc(N2CCCC2=O)cc1,108 nM
13,c1ccc(C2=Nn3c(nnc3-c3n[nH]c4c3CCC4)SC2)cc1,4020 nM
14,COc1ccc(/C=N/NC(=O)c2nc(-c3ccccc3)cc(-c3ccccc3)n2)cc1O,685 nM
15,CC(=O)Nc1cccc(-c2ccnc3c2CC(C)(C(=O)NCc2ccco2)O3)c1 (configuration not stated),617 nM
16,O=C(/C=C/c1ccco1)Nc1nnc(-c2ccco2)s1,310 nM
17,O=C(c1cccc(N2CCCC2=O)c1)N1CCN(c2cccc(Cl)c2)CC1,2600 nM
18,CC(=O)c1cccc(-c2ccnc3c2CC(C(=O)NCc2ccco2)O3)c1 (configuration not stated),967 nM
19,COc1ccc(Nc2nc3cc(-c4sccc4C)sc3c(=O)n2C)cc1OC,477 nM
20,COc1cc(C2Sc3ccccc3NC3=C2C(=O)OC3)cc(OC)c1OC (configuration not stated),12300 nM
21,Cc1ccc(-n2c(SCC(=O)NCCC3=CCCCC3)nc3n[nH]c(C)c3c2=N)cc1Cl,6130 nM
22,CN(C1=C(NC(=O)c2ccc(Cl)cc2)C(=O)c2ccccc2C1=O)c1ccccc1,3410 nM

row,Compound,AC26
1,Cc1cccc(N2CCN(C(=O)c3ccncc3)CC2)c1C,11400 nM
2,COc1ccccc1NC(=O)Cn1nnc(C(=O)NCc2cccs2)c1N,867 nM
3,CCN1C(=O)c2cccc3c(S(=O)(=O)NCC4CCCO4)ccc1c23 (configuration not stated),2990 nM
4,Cc1c(C(=O)Nc2ccc3oc(-c4cccnc4)nc3c2)oc2ccccc12,8840 nM
5,Cn1c(C(=O)OCC(=O)NCc2ccc(F)cc2)cc2occc21,8970 nM
6,Cc1ccc(N2CCN(C3=NC(=O)/C(=C\c4cn[nH]c4-c4ccccc4)S3)CC2)cc1,1350 nM
7,Cc1nc(-c2ccccc2)sc1-c1nc(-c2ccncc2)ncc1S(=O)(=O)c1ccccc1,956 nM
8,O=C(NCCN1C(=O)S/C(=C\c2ccc(Cl)cc2Cl)C1=O)C1=COCCO1,> 19500 nM (inactive)
9,COC(=O)c1cn(C(=O)c2ccc(OC)cc2)c2ccccc12,730 nM
10,CCC(CC)Nc1ccc(C(CC(N)=O)NC(=O)Cc2ccc(Br)cc2)cc1[N+](=O)[O-] (configuration not stated),4130 nM
11,CC(C)(C)c1ccc(OCc2ccc(C(=O)Nc3cccnc3)o2)cc1,7560 nM
12,O=C(N/N=C/c1cccc(C(F)(F)F)c1)C1CCN(c2ncc(C(F)(F)F)cc2Cl)CC1,5890 nM
13,O=C(N/N=C/c1cccc(Br)c1)c1ccc(N2CCCC2=O)cc1,6630 nM
14,NNC(=O)c1oc2nc(-c3cccs3)cc(-c3ccco3)c2c1N,2640 nM
15,COc1ccc(-c2nc3c(C(=O)NCCN(C)C)cccc3c3ccccc23)cc1,4160 nM
16,NC1(C(=O)O)CSSC1,221 nM
17,COc1cc2c(cc1OC)CN(c1ccc(-c3ccccc3OC)nn1)CC2,3380 nM
18,COc1ccc(C(=O)/C=C/c2ccc(-c3ccccc3)cc2)cc1CSCC(=O)O,1480 nM
19,CCn1c2ccccc2c2cc(NC(=O)COC(=O)c3cc(S(N)(=O)=O)c(Cl)cc3Cl)ccc21,3710 nM
20,CCOc1ccc2c(c1)OC(c1ccc(OC)cc1)(C(F)(F)F)NC2=O (configuration not stated),1610 nM
21,CC[C@H](C)[C@H](NC(=O)c1ccc(Cl)cc1)C(=O)OCC(=O)c1ccc2c(c1)NC(=O)CO2,6470 nM
22,COc1ccc(Cl)cc1S(=O)(=O)Nc1ccc2c(c1)n(C)c(=O)n2C,1470 nM

row,Compound,AC26
1,O=C(CC1Nc2ccccc2NC1=O)Nc1ccccc1 (configuration not stated),4880 nM
2,NC(=O)CC(NC(=O)Cc1ccc(Cl)cc1)c1ccc(NC2CCCC2)c([N+](=O)[O-])c1 (configuration not stated),1840 nM
3,O=C(Nc1ccccc1O)c1ccc(NS(=O)(=O)c2cccc3cccnc23)cc1,3930 nM
4,COc1ccc(C(=O)/C=C/c2ccc(N(C)C)cc2)c(OC)c1,11700 nM
5,Cc1ccc(C(=O)N/C(=C/c2ccco2)C(=O)NCCc2c[nH]c3ccccc23)cc1,2670 nM
6,COc1ccc(C2Nc3ccc4ccccc4c3-c3c2c(=O)oc2ccccc32)cc1 (configuration not stated),2070 nM
7,CCN(CC)S(=O)(=O)c1ccc(-c2nnc(SCC(=O)N3CCc4ccccc43)o2)cc1,1460 nM
8,COc1ccc(CC(=O)N/N=C/c2c(C)n(C)c3ccccc23)cc1OC,4460 nM
9,COc1ccccc1/C=C/C(=O)/C=C/c1ccccc1O,696 nM
10,FC(F)(F)c1cccc(Sc2nc(-c3ccccc3)nnc2C(F)(F)F)c1,2340 nM
11,CN1CCN(C(c2ccc(Br)cc2)c2cc(Cl)c3cccnc3c2O)CC1 (configuration not stated),1810 nM
12,CC(/C=N/NC(=O)c1cc(-c2ccc(C)s2)[nH]n1)=C\c1ccccc1,650 nM
13,Cc1ccc(Nc2nnc(SCC(=O)Nc3ncc(S(=O)(=O)c4ccc([N+](=O)[O-])cc4)s3)s2)cc1,9030 nM
14,COc1ccc2nc3n(c(=O)c2c1)-c1cc2ccccc2cc1C(=O)NC3Cc1ccccc1 (configuration not stated),> 19500 nM (inactive)
15,Cc1ccc(-c2cc(C(=O)Nc3ccncc3)c3ccccc3n2)cc1,1910 nM
16,COc1ccccc1OCC(=O)N/N=C/C=C/c1ccc([N+](=O)[O-])o1,432 nM
17,C[C@@]12C(=O)Nc3cc(F)c(F)cc3C(=O)N1[C@H]1c3ccccc3OC[C@@H]1[C@@H]2c1ccccc1,784 nM
18,CCc1cc2c(=O)n(Cc3ccco3)c(SCc3c(C)noc3C)nc2s1,249 nM
19,Cc1ccc(S(=O)(=O)N2CCN(C(=O)COC(=O)c3cc([N+](=O)[O-])ccc3NCCO)CC2)c(C)c1,2430 nM
20,CC(C)OCC(O)CN1CCN(CCN2C(=O)c3cccc4cccc(c34)C2=O)CC1 (configuration not stated),7110 nM
21,O=C(C=Cc1ccccn1)c1ccccc1O,1250 nM
22,Cc1cccc(NC(=O)Nc2cccc(C#N)c2)n1,4060 nM

row,Compound,AC26
1,COc1ccc(OC)c(NS(=O)(=O)c2ccc(SC)cc2)c1,7410 nM
2,Cc1ccc(-c2cc(C(=O)NCC(c3ccccc3)N(C)C)c3ccccc3n2)o1 (configuration not stated),11400 nM
3,CCN1C(=O)c2cccc3c(S(=O)(=O)Nc4ccccc4OC)ccc1c23,4240 nM
4,CCOc1ccccc1N1CCN(C(=O)c2cc3ccccc3cc2OC)CC1,3440 nM
5,CCOc1ccccc1C1CC(=O)Nc2cc3c(cc21)OCO3 (configuration not stated),4370 nM
6,O=C(/C(=C\c1ccccc1)c1nc2ccccc2[nH]1)c1ccc(Cl)cc1,1000 nM
7,O=C(/C=C/c1c[nH]c2ccccc12)c1cccc2ccccc12,5410 nM
8,Cc1ccc(S(=O)(=O)Nc2ccc3c(c2)n(C)c(=O)n3C)cc1,1460 nM
9,CCn1c2ccccc2c2cc(Nc3cc(C)nc4ncnn34)ccc21,69.8 nM
10,Cc1ccc(-c2nn3c(C)nnc3c3ccccc23)cc1S(=O)(=O)N1CCN(CCO)CC1,3870 nM
11,C[C@H](CO)N1C[C@H](C)[C@@H](CN(C)S(=O)(=O)c2cccs2)Oc2c(NC(=O)Cc3ccccc3)cccc2C1=O,2250 nM
12,CCn1c2ccccc2c2cc(NC(=O)COC(=O)C3CCC(=O)N3)ccc21 (configuration not stated),3400 nM
13,Cc1ccnc2nc(C(=O)Nc3cc(Cl)ccc3N3CCOCC3)nn12,659 nM
14,C[C@@]12C(=O)Nc3ccc(Br)cc3C(=O)N1[C@H]1c3ccccc3OC[C@@H]1[C@@H]2c1ccccc1,368 nM
15,Cc1ccc(C(=O)Nc2ccc(NC(=O)c3cccs3)cc2)c(C)c1,8550 nM
16,COc1ccc(NC(=O)C2Cc3c(-c4cccc(NC(C)=O)c4)ccnc3O2)cn1 (configuration not stated),2590 nM
17,Cc1ccc(/C=N/NC(=O)c2cc(-c3cccnc3)nc3ccccc23)cc1,1250 nM
18,COc1ccc(/C=N/NC(=O)c2sccc2OCc2ccc(F)cc2)cc1OC,1310 nM
19,CCN(CCCNC(=O)COc1cc(=O)n(CC)c2ccccc12)Cc1ccccc1,2530 nM
20,CCOC(=O)c1ccccc1NS(=O)(=O)c1ccc(OC)cc1,16000 nM
21,O=C(OCn1ncc(Cl)c(Cl)c1=O)c1ccc(C(F)(F)F)cc1,1130 nM
22,CCOc1ccc(N2C(=O)Nc3ccccc3C2(O)C(=O)N2CCN(c3ccccn3)CC2)cc1 (configuration not stated),880 nM

row,Compound,AC26
1,COc1nc(=O)n(C2C=CC(=O)O2)cc1F (configuration not stated),3200 nM
2,CC1=Nc2cc(C(=O)NCC3CCCO3)ccc2Sc2ccc(C)cc21 (configuration not stated),662 nM
3,CC(=O)C1=C(C)OC(N)=C(C#N)C1c1cc([N+](=O)[O-])ccc1Cl (configuration not stated),2900 nM
4,Cn1c(=O)[nH]c(=O)c2c1nc(N(CCO)Cc1ccccc1)n2CCCc1ccccc1,800 nM
5,COc1ccccc1N1CCN(C(=O)c2[nH]c(C(F)(F)F)nc2-c2ccccc2)CC1,2770 nM
6,CCn1ncc(C2=NOC(C(=O)NCc3ccccc3)C2)c1C (configuration not stated),413 nM
7,Cc1ccc(-c2nc(N(C)C3CCN(C)CC3)c3ccccc3n2)cc1,4000 nM
8,CC1(C(=O)Nc2ccc3c(c2)OCO3)Cc2c(-c3ccc4c(c3)OCO4)ccnc2O1 (configuration not stated),7650 nM
9,Cc1[nH]c(C)c(C(=O)/C=C/c2ccc([N+](=O)[O-])cc2)c1C,633 nM
10,COc1ccc2c(c1)[C@H]1[C@H](CO2)[C@H](c2ccccc2)[C@]2(C)C(=O)Nc3ccc(Br)cc3C(=O)N12,188 nM
11,CN(C)Cc1c(C(=O)N/N=C/c2ccccc2OCc2c(F)cccc2Cl)nnn1-c1nonc1N,4210 nM
12,Cc1cc(C)c2c(c1)cc(C)c1nnc(SCC(=O)Nc3cc(C)on3)n12,12000 nM
13,CC1(C(=O)Nc2ccc(Cl)cc2)Cc2c(-c3cccc(C(N)=O)c3)ccnc2O1 (configuration not stated),15400 nM
14,Cc1ccc(OC(=O)CCC(=O)Oc2ccc(C)cc2C)c(C)c1,> 19500 nM (inactive)
15,O=C(Nc1ccncc1)C1CCCN(S(=O)(=O)c2cccc3cccnc23)C1 (configuration not stated),579 nM
16,COc1ccc(Nc2oc(-c3ccc(Cl)cc3)nc2C#N)cc1,348 nM
17,CCc1nn2c(N(C)CCO)cc(C)nc2c1-c1ccc(F)cc1,12800 nM
18,CC(C)(C)OC(=O)[C@H](Cc1ccccc1)NC(=O)c1nc[nH]c1C(=O)N1CCc2ccccc2C1,3820 nM
19,Cc1nnc2c3ccccc3c(-c3ccccc3)nn12,2870 nM
